How the values were obtained:
[1] = system: SLP-76 phosphorylation in human whole blood monocytes; experiment: FcR stimulation-induced SLP-76 phosphorylation in human whole blood monocytes; assay type: cell-based; details: Monocyte, 5 min, anti CD32 stimulation 5 min, flow cytometry, read-out: Fc Recepor stimulation induced SLP-76 phosphorylation in human whole blood monocytes, IC50
Description: After lysis of erythrocytes and washings, the cell pellet was permeabilized with ice-cold methanol 90%. The permeabilized cells were washed and stained with anti CD14 (eBioscience) to detect monocytes and anti P-SLP76 ([…]) (BD Biosciences) and quantified by flow cytometry.

[2] = target: Syk (2-635) (KSYK_HUMAN, P43405) (Homo sapiens, UniProt P43405); experiment: Syk enzyme assay (chip based microfluidic mobility shift assay); assay type: biochemical; details: 4 μM ATP, 4 nM Syk, 60 minutes at 30° C.
Description: A number of compounds of the present invention were assayed in a chip based microfluidic mobilitiy shift assay. All assays were performed in 384 well microtiter plates. Each assay plate contained 8-point serial dilutions for 40 test compounds, as well as four 8-point serial dilutions of staurosporine as reference compound, plus 16 high- and 16 low controls. Liquid handling and incubation steps were done on a Thermo CatX workstation equipped with a Innovadyne Nanodrop Express. Between pipetting steps, tips were cleaned in wash cycles using wash buffer. The assay plates were prepared by addition of 50 nl per well of compound solution in 90% DMSO. […] Kinase reactions were incubated at 30° C. for 60 minutes and subsequently terminated by addition of 16 μl per well of stop solution (100 mM HEPES pH 7.5, 5% DMSO, 0.1% Caliper coating reagent, 10 mM EDTA, and 0.015% Brij35). Plates with terminated kinase reactions were transferred to the Caliper LC3000 workstations for reading. Phosphorylated and unphosphorylated peptides were separated using the Caliper microfluidic mobility shift technology. Briefly, samples from terminated kinase reactions were applied to the chip. Analytes are transported through the chip by constant buffer flow and the migration of the substrate peptide is monitored by the fluorescence signal of its label. Phosphorylated peptide (product) and unphosphorylated peptide (substrate) are separated in an electric field by their charge/mass ratio. Kinase activities were calculated from the amounts of formed phospho-peptide. […] values were determined from percent inhibition values at different compound concentrations by non-linear regression analysis.
Test compounds were dissolved in DMSO (10 mM) and transferred into 1.4 mL flat bottom or V-shaped Matrix tubes carrying a unique 2D matrix. The stock solutions were stored at […] if not used immediately. For the test procedure the vials were defrosted and identified by a scanner whereby a working sheet was generated that guided the subsequent working steps.
Compound dilutions were made in 96 well plates. This format enabled the assay of maximally 40 individual test compounds at 8 concentrations (single points) including 4 reference compounds. The dilution protocol included the production of “pre-dilution plates”, “master plates” and “assay plates”.
96 polypropylene well plates were used as pre-dilution plates. A total of 4 pre-dilution plates were prepared including 10 test compounds each on the plate positions A1-A10, one standard compound at A11 and one DMSO control at A12. All dilution steps were done on a HamiltonSTAR robot.
30 μL of individual compound dilutions including standard compound and controls of the 4 “pre-dilution plates” were transferred into a 384 “master plate” including the following concentrations 1′810, 362, 72.5, […], 14.5, 2.9, 0.58 and 0.12 μM, respectively in 90% of DMSO.
Identical “assay plates” were then prepared by pipetting […] each of compound dilutions of the “master plates” into 384-well “assay plates” by means of a HummingBird 384-channel dispenser. These plates were used directly for the assay which was performed in a total volume of 9.05 μL. This led to a final compound concentration of 10, 2.0, 0.4, 0.08, 0.016, 0.0032, 0.00064 and 0.000128 μM and a final DMSO concentration of 0.5% in the assay.

[3] = system: phosphorylation of BLNK in Ramos B cells; experiment: Anti IgM-induced phosphorylation of BLNK in Ramos B cells; assay type: cell-based; details: Homo sapiens, 0.25 h, anti IgM 15 min, flow cytometry anti-BLNK (pY84)
Description: Anti IgM-induced phosphorylation of BLNK (BLNK=B cell linker (SLP65=SH2 domain containing leukocyte protein of 65 kDa)) in Ramos B cells: Ramos B cells in a volume of 25 μl were incubated with 25 μl of the compound solution at 2-fold the desired final concentration for 30 min. at 37° C. Then 50 μL anti IgM was added, mixed and incubated for 15 min. at 37° C. In each experiment 8-fold serial dilutions of compounds were tested. The stimulation was stopped by addition of 100 μL/well of PFA (para formaldehyde) I PBS (phosphate buffered saline) (final conc. 2% PFA) for fixation and incubated for 15 min. at 37° C., then centrifuged at 1300 rpm for 3 min and permeabilized by resuspending the cell pellet in 100 μL methanol 90% and further incubated for 30 min at 4° C. The cells were then washed and phosphoproteins were detected by flow cytometry using fluorescently labeled anti-BLNK ([…]) (BD Biosciences).

hERG channel = target: T1, hERG channel (Homo sapiens, UniProt Q12809); experiment: Inhibition of the hERG channel (manual patch clamp assay); assay type: cell-based; details: HEK293 cells stably transfected with hERG cDNA, whole-cell patch clamp, tail current
T1 construct: host or cells: HEK293
T1 sequence (Q12809 whole entry): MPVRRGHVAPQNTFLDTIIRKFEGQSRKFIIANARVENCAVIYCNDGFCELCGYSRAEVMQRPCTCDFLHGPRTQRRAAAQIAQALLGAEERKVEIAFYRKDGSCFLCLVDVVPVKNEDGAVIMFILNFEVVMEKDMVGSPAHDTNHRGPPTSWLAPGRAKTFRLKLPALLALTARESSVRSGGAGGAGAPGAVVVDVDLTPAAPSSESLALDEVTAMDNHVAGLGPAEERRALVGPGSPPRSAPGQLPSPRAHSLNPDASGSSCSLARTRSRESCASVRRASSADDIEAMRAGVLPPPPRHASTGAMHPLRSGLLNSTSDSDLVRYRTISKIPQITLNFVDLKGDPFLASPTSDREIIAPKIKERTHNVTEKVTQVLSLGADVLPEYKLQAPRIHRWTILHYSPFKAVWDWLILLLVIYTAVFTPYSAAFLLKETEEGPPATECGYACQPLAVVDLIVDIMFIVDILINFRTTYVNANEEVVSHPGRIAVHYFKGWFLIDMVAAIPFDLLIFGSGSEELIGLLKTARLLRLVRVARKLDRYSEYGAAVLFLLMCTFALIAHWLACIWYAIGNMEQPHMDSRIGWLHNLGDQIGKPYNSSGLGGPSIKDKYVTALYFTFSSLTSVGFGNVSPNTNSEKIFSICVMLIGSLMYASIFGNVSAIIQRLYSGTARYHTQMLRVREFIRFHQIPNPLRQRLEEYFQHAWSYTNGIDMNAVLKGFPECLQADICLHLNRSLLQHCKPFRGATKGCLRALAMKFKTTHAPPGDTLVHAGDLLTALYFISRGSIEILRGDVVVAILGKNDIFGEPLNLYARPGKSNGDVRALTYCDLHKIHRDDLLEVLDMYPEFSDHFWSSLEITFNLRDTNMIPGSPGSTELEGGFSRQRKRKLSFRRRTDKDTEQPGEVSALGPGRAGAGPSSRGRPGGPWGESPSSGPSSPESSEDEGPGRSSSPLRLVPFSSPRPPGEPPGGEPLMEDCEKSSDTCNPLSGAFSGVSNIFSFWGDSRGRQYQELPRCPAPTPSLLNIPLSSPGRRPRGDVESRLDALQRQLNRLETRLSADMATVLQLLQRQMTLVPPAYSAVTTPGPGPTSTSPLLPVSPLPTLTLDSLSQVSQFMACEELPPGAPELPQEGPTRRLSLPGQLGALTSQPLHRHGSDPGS
Description: The hERG patch clamp assay was done according to standard procedures used in Genetic Toxicology and Safety Pharmacology, based on recommendations and descriptions of methods in the literature, and according to current guidelines (ICH S7B, The non clinical evaluation of the potential for delayed ventricular repolarization (QT interval prolongation) by human pharmaceuticals, 2005). The purpose of the study is to assess the effect of the test item ABC123 on tail current recorded from HEK293 cells stably transfected with hERG cDNA. The HEK293 cells, which have been stably transfected with hERG cDNA, are a model considered to be suitable for this purpose (Zhou et al., 1998). Repolarisation of cardiac ventricular myocytes is mainly due to outward potassium currents. The most important current in humans is the delayed rectifier potassium current, IK, which has both rapidly and slowly activating components (IKr and IKs) (Sanguinetti and Jurkiewicz, 1990). The human ether-a-gogo-related-gene (hERG) encodes the major protein underlying IKr. Thus, inhibition of hERG potassium channels may lead to delayed cardiac repolarisation (Sanguinetti et al., 1995). Prolongation of cardiac repolarisation is a side effect that can be associated with some drug therapies. This proarrhythmic alteration is characterised by a prolongation of the QT interval in the surface electrocardiogram and is of particular concern because it may lead to the development of polymorphic ventricular arrhythmias like torsade de pointes (for review see: Vandenberg, Walker and Campbell, 2001). […] HERG HEK (HEK293 cells stably transfected with hERG cDNA) obtained from the University of Wisconsin were used. For the experiments the cells were plated onto sterile Thermanox plastic coverslips (Nalge Nunc International) in 6-well plates. The dishes were stored in a humidified, gassed incubator. The coverslips with cells were transferred to the recording chamber and continuously superfused (at approximately 1-2 ml/min) with vehicle. The temperature of the vehicle in the bath chamber was regulated by temperature controllers to 35° C.±2.0° C. hERG currents were measured in the whole-cell patch-clamp configuration. Once a stable patch clamp configuration was achieved, recording commenced in voltage-clamp mode, with the cell initially clamped at -75 mV. hERG current was observed and recorded if a stable hERG tail current response could be induced. […] The hERG HEK293 cells were treated approximately 9 min with the test item. The following voltage protocol was applied to induce hERG currents: The step from -75 mV to +10 mV activates an outward current (i.e. current flows out of the cell) and the step from +10 mV to -40 mV produces the tail current (the tail current represents the time taken for the current to turn off). […] The leak current was recorded and subtracted by a P/3n pulse between the voltage pulses (0.1 Hz).

| Compound | IC50 [1] [µM] | IC50 [2] [µM] | IC50 [3] [µM] | inhibition at 9 min, 3 µM (hERG channel; at 3 uM) [%] | inhibition at 9 min, 10 µM (hERG channel; at 10 uM) [%] | inhibition at 9 min, 30 µM (hERG channel; at 30 uM) [%] |
| --- | --- | --- | --- | --- | --- | --- |
| Cc1c[nH]c2c(Nc3nc(N[C@@H]4CCCC[C@@H]4N)nnc3C(N)=O)cc(F)cc12 [Example 1.2, 3-((1R,2S)-2-Amino-cyclohexylamino)-5-(5-fluoro-3-methyl-1H-indol-7-ylamino)-[1,2,4]triazine-6-carboxylic acid amide] | 0.491 | 0.0008 | 0.063 | – | – | – |
| Cc1c[nH]c2c(Nc3nc(N[C@@H]4CCCC[C@@H]4N)nnc3C(N)=O)cccc12 [Example 1.3, 3-((1R,2S)-2-Amino-cyclohexylamino)-5-(3-methyl-1H-indol-7-ylamino)-[1,2,4]triazine-6-carboxylic acid amide] | 0.447 | 0.0035 | 0.072 | 24 ± 3 | 37 ± 6 | 74 ± 6 |
| NC(=O)c1nnc(N[C@@H]2CCCC[C@@H]2N)nc1Nc1cccc2[nH]ccc12 [Example 1.4, 3-((1R,2S)-2-Amino-cyclohexylamino)-5-(1H-indol-4-ylamino)-[1,2,4]triazine-6-carboxylic acid amide] | 0.177 | 0.001 | 0.014 | – | – | – |
| Cn1ncc2c(Nc3nc(N[C@@H]4CCCC[C@@H]4N)nnc3C(N)=O)cccc21 [Example 2.1, 3-((1R,2S)-2-Amino-cyclohexylamino)-5-(1-methyl-1H-indazol-4-ylamino)-[1,2,4]triazine-6-carboxylic acid amide] | 0.509 | 0.012 | 0.121 | – | – | – |
| Cn1cc2c(Nc3nc(N[C@@H]4CCCC[C@@H]4N)nnc3C(N)=O)cccc2n1 [Example 2.2, 3-((1R,2S)-2-Amino-cyclohexylamino)-5-(2-methyl-2H-indazol-4-ylamino)-[1,2,4]triazine-6-carboxylic acid amide] | 0.394 | – | 0.058 | – | – | – |
| NC(=O)c1nnc(N[C@@H]2CCCC[C@@H]2N)nc1Nc1cccc2c(Cl)c[nH]c12 [Example 2.3, 3-((1R,2S)-2-Amino-cyclohexylamino)-5-(3-chloro-1H-indol-7-ylamino)-[1,2,4]triazine-6-carboxylic acid amide] | – | 0.011 | 0.393 | – | – | – |
| N#Cc1c[nH]c2c(Nc3nc(N[C@@H]4CCCC[C@@H]4N)nnc3C(N)=O)cccc12 [Example 2.4, 3-((1R,2S)-2-Amino-cyclohexylamino)-5-(3-cyano-1H-indol-7-ylamino)-[1,2,4]triazine-6-carboxylic acid amide] | – | 0.086 | 0.89 | – | – | – |
| NC(=O)c1nnc(N[C@@H]2CCCC[C@@H]2N)nc1Nc1cccc2[nH]ncc12 [Example 2.5, 3-((1R,2S)-2-Amino-cyclohexylamino)-5-(1H-indazol-4-ylamino)-[1,2,4]triazine-6-carboxylic acid amide] | 0.671 | 0.03 | 0.106 | – | – | – |
| NC(=O)c1nnc(N[C@@H]2CCCC[C@@H]2N)nc1Nc1cc(F)cc2cc[nH]c12 [Example 2.6, 3-((1R,2S)-2-Amino-cyclohexylamino)-5-(5-fluoro-1H-indol-7-ylamino)-[1,2,4]triazine-6-carboxylic acid amide] | 0.562 | 0.0046 | 0.037 | – | – | – |
| Cn1ccc2c(Nc3nc(N[C@@H]4CCCC[C@@H]4N)cnc3C(N)=O)cccc21 [Example 3.1, 5-((1R,2S)-2-Amino-cyclohexylamino)-3-(1-methyl-1H-indol-4-ylamino)-pyrazine-2-carboxylic acid amide] | – | 0.0005 | 0.025 | – | – | – |
| NC(=O)c1ncc(N[C@@H]2CCCC[C@@H]2N)nc1Nc1cccc2cc[nH]c12 [Example 4.1, 5-((1R,2S)-2-Amino-cyclohexylamino)-3-(1H-indol-7-ylamino)-pyrazine-2-carboxylic acid amide] | 0.311 | 0.0027 | 0.028 | – | – | – |
| Cc1c[nH]c2c(Nc3nc(N[C@@H]4CCCC[C@@H]4N)cnc3C(N)=O)cccc12 [Example 4.2, 5-((1R,2S)-2-Amino-cyclohexylamino)-3-(3-methyl-1H-indol-7-ylamino)-pyrazine-2-carboxylic acid amide] | 0.596 | 0.001 | 0.036 | – | – | – |
